From doi:10.1101/2024.08.19.608619, “Discovery of potent SARS-CoV-2 nsp3 macrodomain inhibitors uncovers lack of translation to cellular antiviral response” (bioRxiv, 2024)
Like-named read-outs stand apart in the source and are kept apart here.

Key:
SARS-CoV-2 nsp3-mac1 [1] = molecular target: T1, SARS-CoV-2 nsp3-mac1 (Severe acute respiratory syndrome coronavirus 2, UniProt P0DTD1); experiment: biochemical; type: biochemical; conditions: SARS-CoV-2 nsp3 macrodomain TR-FRET single point, n=2
SARS-CoV-2 nsp3-mac1 [2] = molecular target: T1, SARS-CoV-2 nsp3-mac1; experiment: biochemical; design: SARS-CoV-2 nsp3 macrodomain TR-FRET single point, per cent inhibition, n=2
[3] = read-out: perc_inhibition_mean, batch_name=ASAP-0000285-001
[4] = read-out: perc_inhibition_mean, batch_name=ASAP-0000286-001
[5] = read-out: perc_inhibition_mean, batch_name=ASAP-0000287-001
[6] = read-out: perc_inhibition_mean, batch_name=ASAP-0000288-001
[7] = read-out: perc_inhibition_mean, batch_name=ASAP-0000289-001
[8] = read-out: perc_inhibition_mean, batch_name=ASAP-0000290-001
[9] = read-out: perc_inhibition_mean, batch_name=ASAP-0000291-001
[10] = read-out: perc_inhibition_mean, batch_name=ASAP-0000292-001
[11] = read-out: perc_inhibition_mean, batch_name=ASAP-0000293-001
[12] = read-out: perc_inhibition_mean, batch_name=ASAP-0000294-001
[13] = read-out: perc_inhibition_mean, batch_name=ASAP-0000295-001
[14] = read-out: perc_inhibition_mean, batch_name=ASAP-0000296-001
[15] = read-out: perc_inhibition_mean, batch_name=ASAP-0000297-001
[16] = read-out: perc_inhibition_mean, batch_name=ASAP-0000298-001
[17] = read-out: perc_inhibition_mean, batch_name=ASAP-0000299-001
[18] = read-out: perc_inhibition_mean, batch_name=ASAP-0000300-001
[19] = read-out: perc_inhibition_mean, batch_name=ASAP-0000301-001

Compound: O=C(c1ncc[nH]1)N1CCC(c2ccn3ncc(C(=O)N4CCCCC4)c3c2)CC1 [ASAP-0000285]
- perc_inhibition_mean (SARS-CoV-2 nsp3-mac1 [1]; concentration 49.75 uM): 18.474%
- perc_inhibition_mean (SARS-CoV-2 nsp3-mac1 [1]; concentration 99.5 uM): 37.203%
- inhibition at 49.75 µM (SARS-CoV-2 nsp3-mac1 [2]; [3]): 18.5%
- inhibition at 99.5 µM (SARS-CoV-2 nsp3-mac1 [2]; [3]): 37.2%

Compound: CCn1cnc(Nc2ncnc3c2ncn3Cc2cc(OC)no2)c1 [ASAP-0000286]
- perc_inhibition_mean (SARS-CoV-2 nsp3-mac1 [1]; concentration 49.75 uM): -16.725%
- perc_inhibition_mean (SARS-CoV-2 nsp3-mac1 [1]; concentration 99.5 uM): -12.789%
- inhibition at 49.75 µM (SARS-CoV-2 nsp3-mac1 [2]; [4]): -16.7%
- inhibition at 99.5 µM (SARS-CoV-2 nsp3-mac1 [2]; [4]): -12.8%

Compound: O=C(Nc1ccccc1)Nc1ccc(C(=O)N2CCc3ccncc32)cc1 [ASAP-0000287]
- perc_inhibition_mean (SARS-CoV-2 nsp3-mac1 [1]; concentration 49.75 uM): -4.305%
- perc_inhibition_mean (SARS-CoV-2 nsp3-mac1 [1]; concentration 99.5 uM): 0.234%
- inhibition at 49.75 µM (SARS-CoV-2 nsp3-mac1 [2]; [5]): -4.3%
- inhibition at 99.5 µM (SARS-CoV-2 nsp3-mac1 [2]; [5]): 0.234%

Compound: O=C(Nc1ccccc1)Nc1ccc(C(=O)N2CCOCC23CCC3)cc1 [ASAP-0000288]
- perc_inhibition_mean (SARS-CoV-2 nsp3-mac1 [1]; concentration 49.75 uM): -5.176%
- perc_inhibition_mean (SARS-CoV-2 nsp3-mac1 [1]; concentration 99.5 uM): -3.184%
- inhibition at 49.75 µM (SARS-CoV-2 nsp3-mac1 [2]; [6]): -5.18%
- inhibition at 99.5 µM (SARS-CoV-2 nsp3-mac1 [2]; [6]): -3.18%

Compound: C[C@H](NC(=O)c1ccc(NC(=O)Nc2ccccc2)cc1)[C@@H]1CCCO1 [ASAP-0000289]
- perc_inhibition_mean (SARS-CoV-2 nsp3-mac1 [1]; concentration 49.75 uM): -4.279%
- perc_inhibition_mean (SARS-CoV-2 nsp3-mac1 [1]; concentration 99.5 uM): -4.858%
- inhibition at 49.75 µM (SARS-CoV-2 nsp3-mac1 [2]; [7]): -4.28%
- inhibition at 99.5 µM (SARS-CoV-2 nsp3-mac1 [2]; [7]): -4.86%

Compound: O=C1C[C@H](CNC(=O)c2ccc(NC(=O)Nc3ccccc3)cc2)CCN1 [ASAP-0000290]
- perc_inhibition_mean (SARS-CoV-2 nsp3-mac1 [1]; concentration 49.75 uM): 1.223%
- perc_inhibition_mean (SARS-CoV-2 nsp3-mac1 [1]; concentration 99.5 uM): 4.013%
- inhibition at 49.75 µM (SARS-CoV-2 nsp3-mac1 [2]; [8]): 1.22%
- inhibition at 99.5 µM (SARS-CoV-2 nsp3-mac1 [2]; [8]): 4.01%

Compound: C[C@H](NC(=O)c1ccc(NC(=O)Nc2ccccc2)cc1)c1ccccn1 [ASAP-0000291]
- perc_inhibition_mean (SARS-CoV-2 nsp3-mac1 [1]; concentration 49.75 uM): 2.448%
- perc_inhibition_mean (SARS-CoV-2 nsp3-mac1 [1]; concentration 99.5 uM): 0.349%
- inhibition at 49.75 µM (SARS-CoV-2 nsp3-mac1 [2]; [9]): 2.45%
- inhibition at 99.5 µM (SARS-CoV-2 nsp3-mac1 [2]; [9]): 0.349%

Compound: CN(C(=O)c1ccc(NC(=O)Nc2ccccc2)cc1)[C@@H]1CN2CCC1CC2 [ASAP-0000292]
- perc_inhibition_mean (SARS-CoV-2 nsp3-mac1 [1]; concentration 49.75 uM): -4.01%
- perc_inhibition_mean (SARS-CoV-2 nsp3-mac1 [1]; concentration 99.5 uM): 2.773%
- inhibition at 49.75 µM (SARS-CoV-2 nsp3-mac1 [2]; [10]): -4.01%
- inhibition at 99.5 µM (SARS-CoV-2 nsp3-mac1 [2]; [10]): 2.77%

Compound: CN1CCO[C@H](CNC(=O)c2ccc(NC(=O)Nc3ccccc3)cc2)C1 [ASAP-0000293]
- perc_inhibition_mean (SARS-CoV-2 nsp3-mac1 [1]; concentration 49.75 uM): -0.616%
- perc_inhibition_mean (SARS-CoV-2 nsp3-mac1 [1]; concentration 99.5 uM): 3.272%
- inhibition at 49.75 µM (SARS-CoV-2 nsp3-mac1 [2]; [11]): -0.616%
- inhibition at 99.5 µM (SARS-CoV-2 nsp3-mac1 [2]; [11]): 3.27%

Compound: Nc1ncnc2c1ncn2Cc1cccc2ncnn12 [ASAP-0000294]
- perc_inhibition_mean (SARS-CoV-2 nsp3-mac1 [1]; concentration 49.75 uM): -0.553%
- perc_inhibition_mean (SARS-CoV-2 nsp3-mac1 [1]; concentration 99.5 uM): -3.161%
- inhibition at 49.75 µM (SARS-CoV-2 nsp3-mac1 [2]; [12]): -0.553%
- inhibition at 99.5 µM (SARS-CoV-2 nsp3-mac1 [2]; [12]): -3.16%

Compound: O=C(Nc1ccccc1)Nc1ccc(C(=O)N2CCc3nc[nH]c3C2)cc1 [ASAP-0000295]
- perc_inhibition_mean (SARS-CoV-2 nsp3-mac1 [1]; concentration 49.75 uM): -3.024%
- perc_inhibition_mean (SARS-CoV-2 nsp3-mac1 [1]; concentration 99.5 uM): -2.379%
- inhibition at 49.75 µM (SARS-CoV-2 nsp3-mac1 [2]; [13]): -3.02%
- inhibition at 99.5 µM (SARS-CoV-2 nsp3-mac1 [2]; [13]): -2.38%

Compound: O=C(Nc1ccccc1)Nc1ccc(C(=O)N[C@H]2CC[C@H](CO)CC2)cc1 [ASAP-0000296]
- perc_inhibition_mean (SARS-CoV-2 nsp3-mac1 [1]; concentration 49.75 uM): -0.639%
- perc_inhibition_mean (SARS-CoV-2 nsp3-mac1 [1]; concentration 99.5 uM): -2.577%
- inhibition at 49.75 µM (SARS-CoV-2 nsp3-mac1 [2]; [14]): -0.639%
- inhibition at 99.5 µM (SARS-CoV-2 nsp3-mac1 [2]; [14]): -2.58%

Compound: CC1(C)CN(C(=O)c2ccc(NC(=O)Nc3ccccc3)cc2)C[C@@]1(F)C(=O)O [ASAP-0000297]
- perc_inhibition_mean (SARS-CoV-2 nsp3-mac1 [1]; concentration 49.75 uM): -2.566%
- perc_inhibition_mean (SARS-CoV-2 nsp3-mac1 [1]; concentration 99.5 uM): -5.193%
- inhibition at 49.75 µM (SARS-CoV-2 nsp3-mac1 [2]; [15]): -2.57%
- inhibition at 99.5 µM (SARS-CoV-2 nsp3-mac1 [2]; [15]): -5.19%

Compound: O=C(CCN(Cc1cccc(Cl)c1)C(=O)C1(F)CCCCC1)N1CCNCC1 [ASAP-0000298]
- perc_inhibition_mean (SARS-CoV-2 nsp3-mac1 [1]; concentration 49.75 uM): -3.576%
- perc_inhibition_mean (SARS-CoV-2 nsp3-mac1 [1]; concentration 99.5 uM): 0.185%
- inhibition at 49.75 µM (SARS-CoV-2 nsp3-mac1 [2]; [16]): -3.58%
- inhibition at 99.5 µM (SARS-CoV-2 nsp3-mac1 [2]; [16]): 0.185%

Compound: CCN(Cc1cccnc1)C(=O)c1ccc(NC(=O)Nc2ccccc2)cc1 [ASAP-0000299]
- perc_inhibition_mean (SARS-CoV-2 nsp3-mac1 [1]; concentration 49.75 uM): 3.632%
- perc_inhibition_mean (SARS-CoV-2 nsp3-mac1 [1]; concentration 99.5 uM): -7.091%
- inhibition at 49.75 µM (SARS-CoV-2 nsp3-mac1 [2]; [17]): 3.63%
- inhibition at 99.5 µM (SARS-CoV-2 nsp3-mac1 [2]; [17]): -7.09%

Compound: Cc1n[nH]cc1CN(C)C(=O)c1ccc(NC(=O)Nc2ccccc2)cc1 [ASAP-0000300]
- perc_inhibition_mean (SARS-CoV-2 nsp3-mac1 [1]; concentration 49.75 uM): -3.77%
- perc_inhibition_mean (SARS-CoV-2 nsp3-mac1 [1]; concentration 99.5 uM): -0.031%
- inhibition at 49.75 µM (SARS-CoV-2 nsp3-mac1 [2]; [18]): -3.77%
- inhibition at 99.5 µM (SARS-CoV-2 nsp3-mac1 [2]; [18]): -0.031%

Compound: C[C@@H]1CN(C(=O)c2ccc(NC(=O)Nc3ccccc3)cc2)CC(=O)N1 [ASAP-0000301]
- perc_inhibition_mean (SARS-CoV-2 nsp3-mac1 [1]; concentration 49.75 uM): -0.707%
- perc_inhibition_mean (SARS-CoV-2 nsp3-mac1 [1]; concentration 99.5 uM): 0.29%
- inhibition at 49.75 µM (SARS-CoV-2 nsp3-mac1 [2]; [19]): -0.707%
- inhibition at 99.5 µM (SARS-CoV-2 nsp3-mac1 [2]; [19]): 0.29%
